In data set [1] the test system is Mycobacterium tuberculosis. Description: Antimycobacterial activity against Mycobacterium tuberculosis H37Rv ATCC 27294 by broth dilution method. Format: functional.
Data set [2] in a line: Elimination half life in Balb mouse at 1 mg/kg, iv. Details: dose 1 mg/kg, route intravenous. Format: ADME, organism-based. Particulars: in vivo, read-out: beta t1/2 (converted).
Data set [3] has as its system Mycobacterium tuberculosis. The data set can be described thus: Bactericidal activity against Mycobacterium tuberculosis H37Rv ATCC 27294 by broth dilution method. The class given is functional. (In general: Dilution methods test growth across graded concentrations, often in twofold steps.)
Data set [4] in a line: Bioavailability in Balb mouse at 2.5 mg/kg, ip. Conditions: in vivo. The class given is ADME, organism-based.
In data set [5] the test system is Mycobacterium tuberculosis. Description: Antimycobacterial activity against Mycobacterium tuberculosis H37Rv ATCC 27294 infected in mouse J774 cells assessed as intracellular killing after 48 hrs by colony formation assay. Particulars: H37Rv ATCC 27294, 48 h. Format: functional.
Data set [6] in a line: Clearance in Balb mouse at 1 mg/kg, iv. Format: ADME, organism-based. Set-up: dose 1 mg/kg, route intravenous. Particulars: in vivo.
A short description of data set [7]: AUC (0 to t) in Balb mouse at 1 mg/kg, iv. Conditions: plasma. The class given is ADME, organism-based. Details: dose 1 mg/kg, route intravenous.
Data set [8] is described as follows: Selectivity index, ratio of IC50 for mouse J774 cells to MIC for Mycobacterium tuberculosis H37Rv ATCC 27294. The class given is toxicity, cell-based. Conditions: read-out: Selectivity Index.
A short description of data set [9]: Tmax in Balb mouse at 2.5 mg/kg, ip. The class given is ADME, organism-based. Details: dose 2.5 mg/kg, route intraperitoneal. Conditions: in vivo.
Data set [10] in a line: Elimination half life in Balb mouse at 2.5 mg/kg, ip. Conditions: in vivo, read-out: beta t1/2 (converted). The class given is ADME, organism-based. Details: dose 2.5 mg/kg, route intraperitoneal.
The test system of data set [11] is J774. The data set can be described thus: Cytotoxicity against mouse J774 cells after 24 hrs by MTT assay. Particulars: J774, 24 h. Format: cell-based. Background: Tetrazolium dyes change colour on reduction, which living cells bring about.
Data set [12] is described as follows: AUC (0 to t) in Balb mouse at 2.5 mg/kg, ip. Conditions: plasma. The class given is ADME, organism-based. Set-up: dose 2.5 mg/kg, route intraperitoneal.
A short description of data set [13]: Cmax in Balb mouse at 1 mg/kg, iv. Set-up: dose 1 mg/kg, route intravenous. Particulars: in vivo. The class given is ADME, organism-based.
Data set [14] relates to J774. The data set can be described thus: Cytotoxicity against mouse J774 cells at 20 ug/ml after 24 hrs by MTT assay. Particulars: j774, 24 h. The class given is cell-based.
A short description of data set [15]: Cmax in Balb mouse at 2.5 mg/kg, ip. Particulars: in vivo. The class given is ADME, organism-based. Details: dose 2.5 mg/kg, route intraperitoneal.

Molecules are shown by their SMILES. Values after ≈ are worked out from the molar mass of the structure shown.

As a reminder, the MIC is the least concentration at which growth counts as inhibited. `O=C(Nc1ccccc1F)c1cc([N+](=O)[O-])cc([N+](=O)[O-])c1` displayed an MIC in data set [1] of 26.1 µM (≈ 7.96 µg/mL).

`O=C(Nc1cc(Cl)cc(Cl)c1)c1cc([N+](=O)[O-])cc([N+](=O)[O-])c1` yielded a minimal inhibitory concentration (MIC) in data set [1] of 22.5 µM (≈ 8.02 µg/mL).

`N#Cc1ccccc1NC(=O)c1cc([N+](=O)[O-])cc([N+](=O)[O-])c1` registered an MIC in data set [1] of 6.4 µM (≈ 2 µg/mL).

`COc1ccc(CCNC(=O)c2cc([N+](=O)[O-])cc([N+](=O)[O-])c2)cc1` gave a minimal inhibitory concentration (MIC) in data set [1] of 1.45 µM (≈ 0.501 µg/mL).

For `CCCCC(CC)CNC(=O)c1cc([N+](=O)[O-])cc([N+](=O)[O-])c1` (centres undefined), the minimal inhibitory concentration (MIC) in data set [1] turned out to be 0.19 µM (≈ 0.0614 µg/mL).

Regarding `O=C(NC1CCCC1)c1cc([N+](=O)[O-])cc([N+](=O)[O-])c1`, in data set [1], the MIC is 0.9 µM (≈ 0.251 µg/mL).

As for `Cc1c([N+](=O)[O-])cc(C(=O)NCc2ccccc2)cc1[N+](=O)[O-]`, in data set [1], the minimum inhibitory concentration (MIC) turned out to be 0.38 µM (≈ 0.12 µg/mL).

What is called MBC is the smallest concentration meeting the test's criterion for killing. Lower therefore signals more potent killing. For orientation: bioavailability means dose-corrected exposure relative to a reference, in per cent. Higher therefore signals good availability. The clearance is the volume of plasma or blood freed of the substance per unit of time. Broadly, the AUC(0-t) is exposure summed from dosing to a finite time, without extrapolation to infinity. A lower AUC(0-t) goes with low exposure. For orientation: Tmax means the time from dosing to the highest level. The term IC50 denotes the point on the concentration scale where inhibition reaches its midpoint. Low readings indicate higher potency, high ones lower potency. The term Cmax denotes the maximum level reached in the sampled fluid or tissue. On to `Cc1ccc([C@@H](C)NC(=O)c2cc([N+](=O)[O-])c(C)c([N+](=O)[O-])c2)cc1`, for which the results for the half-life in data set [2] and in data set [10] were 55.8 min and 97.8 min, respectively. In [3], this compound had an MBC of 0.72 µM (≈ 0.247 µg/mL). In [4], the bioavailability is 49%. Also, the values for the MIC in data set [5] and in data set [1] were 1.44 µM (≈ 0.494 µg/mL) and 0.09 µM (≈ 0.0309 µg/mL), respectively. The clearance in [6] was 134 mL/min/kg. Besides, the values for the area under the curve AUC(0-t) in data set [7] and in data set [12] were 0.352 µM·h and 0.431 µM·h, respectively. Besides, in data set [8], the selectivity ratio is > 666. Further, the time of peak concentration (Tmax) in [9] was 30 min. Further, the IC50 in data set [11] was > 58.2 µM. The results for the peak concentration (Cmax) in data set [13] and in data set [15] were 673 nM and 177 nM, respectively. Besides, the Activity entry in data set [14] was “Non-toxic”.

Consider `Cc1ccc([C@H](C)NC(=O)c2cc([N+](=O)[O-])c(C)c([N+](=O)[O-])c2)cc1`, for which it took 11.7 µM (≈ 4 µg/mL) to inhibit growth in data set [1] (MIC).

With `Cc1c([N+](=O)[O-])cc(C(=O)N[C@H](C)c2ccc(F)cc2)cc1[N+](=O)[O-]`, the minimal bactericidal concentration (MBC) in data set [3] amounted to 0.17 µM (≈ 0.059 µg/mL). Further, the values for the minimal inhibitory concentration (MIC) in data set [5] and in [1] were 0.71 µM (≈ 0.247 µg/mL) and 0.17 µM (≈ 0.059 µg/mL), respectively. Also, in data set [8], the selectivity ratio is > 333. For the same compound, in data set [11], the IC50 was > 57.6 µM. Besides, in data set [14], the Activity entry is “Non-toxic”.

Consider `Cc1c([N+](=O)[O-])cc(C(=O)N[C@@H](C)c2ccc(F)cc2)cc1[N+](=O)[O-]`, for which the half-life in data set [2] was 54 min; in [10], 64.8 min. The minimal bactericidal concentration (MBC) in [3] was < 0.04 µM. The same compound returned a bioavailability in data set [4] of 35%. In addition, the minimum inhibitory concentration (MIC) is < 0.64 µM in data set [5] and 0.04 µM (≈ 0.0139 µg/mL) in data set [1]. This compound gave a clearance in [6] of 111 mL/min/kg. In addition, the AUC(0-t) in data set [7] was found to be 0.374 µM·h; in [12], 0.351 µM·h. In addition, the selectivity ratio in [8] was > 1330. For the same compound, the Tmax in [9] was 15 min. The IC50 in [11] was > 57.6 µM. The Cmax was found to be 711 nM in data set [13] and 216 nM in data set [15]. In data set [14], the Activity entry is “Non-toxic”.

The compound `Cc1c([N+](=O)[O-])cc(C(=O)N[C@H](C)c2ccc(Cl)cc2)cc1[N+](=O)[O-]` returned a minimum inhibitory concentration (MIC) in [1] of 1.38 µM (≈ 0.502 µg/mL).

As for `Cc1c([N+](=O)[O-])cc(C(=O)N[C@@H](C)c2ccc(Cl)cc2)cc1[N+](=O)[O-]`, the MIC in [1] is > 5.51 µM.

The compound `COc1ccc([C@@H](C)NC(=O)c2cc([N+](=O)[O-])c(C)c([N+](=O)[O-])c2)cc1` had an MIC in [1] of 0.7 µM (≈ 0.252 µg/mL).

Compound `COc1ccc([C@H](C)NC(=O)c2cc([N+](=O)[O-])c(C)c([N+](=O)[O-])c2)cc1` displayed an MIC in [1] of 1.39 µM (≈ 0.499 µg/mL).

On to `Cc1c([N+](=O)[O-])cc(C(=O)N[C@H](C)c2ccccc2)cc1[N+](=O)[O-]`, for which, in data set [1], the MIC was found to be 0.36 µM (≈ 0.119 µg/mL).

`Cc1ccc([C@@H](C)NC(=O)c2cc([N+](=O)[O-])cc([N+](=O)[O-])c2)cc1` yielded a minimal bactericidal concentration (MBC) in data set [3] of 0.2 µM (≈ 0.0659 µg/mL). Further, the figures for the minimal inhibitory concentration (MIC) in data set [5] and in [1] were 0.8 µM (≈ 0.263 µg/mL) and 0.05 µM (≈ 0.0165 µg/mL), respectively. For the same compound, the selectivity ratio in data set [8] is > 1330. Moreover, the half-maximal inhibitory concentration (IC50) in data set [11] was > 60.8 µM. The Activity result in [14] is given as “Non-toxic”.

`Cc1ccc([C@H](C)NC(=O)c2cc([N+](=O)[O-])cc([N+](=O)[O-])c2)cc1`: it took 0.76 µM (≈ 0.25 µg/mL) to inhibit growth in data set [1] (MIC).

As to `C[C@@H](NC(=O)c1cc([N+](=O)[O-])cc([N+](=O)[O-])c1)c1ccc(F)cc1`, in [1], the MIC is > 12 µM.

`C[C@H](NC(=O)c1cc([N+](=O)[O-])cc([N+](=O)[O-])c1)c1ccc(F)cc1` showed an MIC in [1] of 3 µM (≈ 1 µg/mL).

`C[C@@H](NC(=O)c1cc([N+](=O)[O-])cc([N+](=O)[O-])c1)c1ccc(Cl)cc1`: the minimal inhibitory concentration (MIC) in data set [1] was 0.17 µM (≈ 0.0595 µg/mL).

`C[C@H](NC(=O)c1cc([N+](=O)[O-])cc([N+](=O)[O-])c1)c1ccc(Cl)cc1` had an MIC in [1] of 1.43 µM (≈ 0.5 µg/mL).

In the case of `COc1ccc([C@@H](C)NC(=O)c2cc([N+](=O)[O-])cc([N+](=O)[O-])c2)cc1`, 2.9 µM (≈ 1 µg/mL) was the least that counted as inhibitory in [1] (MIC).

For `CC(C)c1ccc(NC(=O)c2cc([N+](=O)[O-])cc([N+](=O)[O-])c2)cc1`, 12.1 µM (≈ 4 µg/mL) was the least that counted as inhibitory in [1] (MIC).

For the compound `Cc1ccc(C(C)NC(=O)c2cc([N+](=O)[O-])c(C)c([N+](=O)[O-])c2)cc1` (racemic), the MBC in data set [3] was < 0.04 µM. Besides, the minimal inhibitory concentration (MIC) in [5] is 0.72 µM (≈ 0.247 µg/mL); in [1], < 0.17 µM. Also, the selectivity ratio in [8] was > 1330. In addition, the IC50 in data set [11] is > 58.2 µM. Moreover, the Activity entry in data set [14] is “Non-toxic”.

The compound `CO[C@H]1/C=C/O[C@@]2(C)Oc3c(C)c(O)c4c(O)c(c(/C=N/N5CCN(C)CC5)c(O)c4c3C2=O)NC(=O)/C(C)=C\C=C\[C@H](C)[C@H](O)[C@@H](C)[C@@H](O)[C@@H](C)[C@H](OC(C)=O)[C@@H]1C` [RIFAMPIN] yielded a minimum inhibitory concentration (MIC) in data set [1] of 0.07 µM (≈ 0.0576 µg/mL).
